Structures can show the parent of a compound that is named as a salt.
What was measured:
Format in all cases: physicochemical
[1] = Photostability under natural light, visual observations; details: 4×10^−2 M solution, 25° C. water bath
Experimental: (§1) To carry out this study, the various solutions (4×10^−2 M) are placed in a 25° C. water bath under natural light for several weeks. This gentler mode of irradiation was preferred over the use of a Xenon lamp which degrades the active principle too rapidly and makes it impossible to establish a comparison.

[2] = Photodegradation monitored by UV / visible spectrophotometry; details: after two months under natural exposure; for λmax (nm): visible range
Experimental: The study of the photophysical properties of promethazine hydrochloride and the association Lac6P on the one hand, and mequitazine hydrochloride and the association Lac6M on the other, was thus undertaken by UV spectrophotometry.
This study was carried out on a Hewlett-Packard 8452A diode array spectrophotometer operating at wavelengths between 190 nm and 820 nm.
The solutions were analyzed in quartz cells at concentrations of 4×10 ^−2 M and 6.6×10^−5 M.
as §1
However, in order to better understand this phenomenon, photodegradation of the hydrochlorides and the associations Lac6P and Lac6M was monitored by visible spectrophotometry. This analysis technique is particularly suited to the study of this phenomenon because it takes color variations into account.
After two months under natural exposure, the appearance of a band for promethazine and mequitazine hydrochlorides, as well as for the catanionic association Lac6P, confirms the color changes observed. It is important to note that in visible spectrophotometry, perceived color is always complementary to absorbed radiation. For example, mequitazine hydrochloride absorbs in the green spectrum (λ=512 nm) and appears pink-purple.

[3] = Photodegradation quantified by HPLC (undegraded active principle in solution); details: after five days under natural light, 4×10^−2 M
Experimental: Promethazine photodegradation was monitored by HPLC on a Waters 2695 chromatograph equipped with Millipore 510 pumps and an XBridge RP18 column (2.1×100 nm, 3.5 μm). Promethazine is detected by UV-visible spectrophotometry, at a wavelength of 251 nm, with a Waters 2487 Dual λ Absorbance Detector. The mobile phase is composed of a 22/78 mixture of 0.1% formic acid in water and acetonitrile. Elution is carried out in isocratic mode with a flow rate of 0.35 ml/min^−1. The volumes injected are 10 μl. All the samples were injected three times.
A calibration curve is prepared beforehand with promethazine hydrochloride over a range of concentrations between 10^5 M and 5×10^−2 M.
In order to refine the results obtained, degradation of promethazine hydrochloride and the catanionic association Lac6P was quantified by high-performance liquid chromatography (HPLC). Degradation is monitored by assaying the quantity of undegraded active principle present in solution (FIG. 2).

Color observed [2]	λmax (nm) [2] [nm]	degradation rate [3] [%]	Structure (SMILES)	colour change of the solution (visual observation) [1]	appearance of an insoluble product (visual observation) [1]
pink-purple	512		c1ccc2c(c1)Sc1ccccc1N2CC1CN2CCC1CC2 (centres unmarked) [Mequitazine hydrochloride, mequitazine hydrochloride]	turns pink after ten days of exposure, and then changes no further	
violet-indigo	538	13	CC(CN1c2ccccc2Sc2ccccc21)N(C)C (centres unmarked) [Promethazine hydrochloride, promethazine hydrochloride]	turns pink after 24 hours of exposure and changes to blue-violet after a few days	an insoluble compound appears after about two weeks under natural light

Reference: patent US8895518B2, “Cooperative conveyance of basic active principles by amphiphilic acid molecules” (Centre National de la Recherche Scientifique, priority 2009, dated 2014)
